{"source": "ChEMBL document CHEMBL3639079", "about": "“Hydroxamic acid derivative” (2015)", "target": "T1, UDP-3-O-acyl-N-acetylglucosamine deacetylase (Pseudomonas aeruginosa (strain ATCC 15692 / PAO1 / 1C / PRS 101 / LMG12228), UniProt P47205)", "T1 sequence (P47205 whole entry)": "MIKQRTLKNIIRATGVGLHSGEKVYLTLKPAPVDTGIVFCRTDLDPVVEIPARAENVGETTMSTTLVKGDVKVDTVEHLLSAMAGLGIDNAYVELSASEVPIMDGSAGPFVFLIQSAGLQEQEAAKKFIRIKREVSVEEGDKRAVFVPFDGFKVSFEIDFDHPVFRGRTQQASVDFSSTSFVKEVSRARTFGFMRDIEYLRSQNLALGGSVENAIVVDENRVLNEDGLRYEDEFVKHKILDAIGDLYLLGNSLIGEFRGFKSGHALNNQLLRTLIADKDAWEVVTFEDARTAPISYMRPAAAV", "description": "The reaction was performed in 40 mmol/L of Hepes buffer solution (pH 8.0) supplemented with 0.02% Bridge 35 and 80 µmol/L of dithiothreitol. To terminate the reaction, 0.2 mol/L of borax was added to the reaction mixture."}
{"smiles": "CNC(=O)C(C(=O)NO)N(C)C(=O)c1ccc(-c2ccc(OCCCN3CCOCC3)cc2)cc1", "note": "(stereo unspecified)", "values": [{"measurement": "IC50", "result": 6.7, "unit": "nM"}]}
